According to US20100216886A1, “POLYMORPHS OF N2-(1,1'-BIPHENYL-4-YLCARBONYL)-N1-[2-(4-FLUOROPHENYL)-1,1-DIMETHYLETHYL]-L-ALPHA-GLUTAMINE” (Wyeth, priority 2006, published 2010):
Values after ≈ are worked out from the molar mass of the structure shown. “Also recorded” adds a separate entry of the source. Where a name gives a salt, the structure may show the parent alone. Read-outs that look alike come from different tables or passages of the source.

What was measured:
[1] = Solubility of suspensions in Tox formulation (2% Tween 80 in water) by HPLC; assay type: physicochemical; details: ambient conditions
Description: Suspensions of 10 to 20 mg/mL of compound (I) in a Tox (toxicological) formulation (2% Tween 80 in water) using the polymorphs described above were prepared and equilibrated at ambient conditions. The stability of the suspensions was evaluated visually and the solubility of the suspensions was determined by HPLC.
Mobile Phase: A=900 mL/100 mL/0.1 mL Water/Acetonitrile/TFA
B=100 mL/900 mL/0.1 mL Water/Acetonitrile/TFA

[2] = pH solubility profile and pKa fitting
Description: The pH solubility profile was generated first with Sample D containing polymorph Form A, and then with Sample F containing polymorph Form B, in HCl/NaOH solutions. After 24 hour equilibration, suspensions were centrifuged and the supernatants assayed by HPLC.
The solubility data was analyzed as a function of pH using the Henderson-Hasselbach equation:
Solubility=S0·[10^(PH-pKa)+1],
where S0 is the intrinsic solubility of the free acid.

[3] = Solubility in water and 2% Tw80 of samples used in toxicological formulation assessments; assay type: physicochemical
Source text: Table 6 summarizes various solid-state properties of samples used in toxicological formulation assessments.

[4] = Second CACO-2 study, propranolol as reference; assay type: in vitro ADME; details: human, Caco-2; A → B, apical pH 6, basolateral pH 7, without verapamil
Source text: The second CACO-2 study gave somewhat different results (Table 12). Because metoprolol interferes with the LC/MS assay, propranolol, which has a permeability that is […] metoprolol, was used as the FDA calibration compound. The apical pH was controlled at 6 and basolateral pH at pH 7. In addition, verapamil was used as a competitive inhibitor of the Pgp (P-glycoprotein) transporter. The ratios to propranolol were 1.00 and 0.77 with and without verapamil. […] The B→A/A→B ratios were low at 0.3 and 0.3, with and without verapamil, respectively, indicating again no efflux […].

[5] = Polymorphic conversion study in aqueous media (2% Tween 80, water); assay type: physicochemical
Source text: Polymorphic conversion of Form A to Form B was not observed with Sample D in 2% Tween 80 or water.
Polymorph pseudo Form A was obtained from a scaled up preparation of polymorph Form A (Sample E).
The polymorphic conversion appeared to be slower in water than in the 2% Tween suspension, probably due to the lower solubility in water.
DSC data also supported this observation (FIG. 11).

Solid state stability = assay type: physicochemical; details: 14-day storage at room temperature, in temperatures up to 80° C., and in a light box (510 fc)
[6] = In situ rat perfusion model, metoprolol as reference; assay type: in vivo; parameters: Papp: dose or concentration left out as unconfirmed
Source text: The permeability was 18.2 nm/sec, which is higher than the 14.5 nm/sec value obtained for metoprolol (Table 13).

[7] = First CACO-2 study, metoprolol as reference; details: human; for recovery: Caco-2, pH 7.4, % Recovery, pH 7.4

## CC(C)(Cc1ccc(F)cc1)NC(=O)[C@H](CCC(=O)O)NC(=O)c1ccc(-c2ccccc2)cc1 [Sample 1, N^2-(1,1′-biphenyl-4-ylcarbonyl)-N^1-[2-(4-fluorophenyl)-1,1-dimethylethyl]-L-α-glutamine]
[1]
  solubility: 201.9 µg/mL (≈ 424 µM)

## CC(C)(Cc1ccc(F)cc1)NC(=O)[C@H](CCC(=O)O)NC(=O)c1ccc(-c2ccccc2)cc1 [sodium salt, N^2-(1,1′-biphenyl-4-ylcarbonyl)-N^1-[2-(4-fluorophenyl)-1,1-dimethylethyl]-L-α-glutamine]
[2]; HCl/NaOH solutions, 24 hour equilibration, HPLC
  Solubility at pH 12.8: 4.7 mg/mL

## CC(C)(Cc1ccc(F)cc1)NC(=O)[C@H](CCC(=O)O)NC(=O)c1ccc(-c2ccccc2)cc1 [G, N^2-(1,1′-biphenyl-4-ylcarbonyl)-N^1-[2-(4-fluorophenyl)-1,1-dimethylethyl]-L-α-glutamine]
[3]
  Solubility, 2% Tw80: 127 µg/mL (≈ 266 µM)
  pH of 2% Tw80 solubility sample: 5.9

## CC(C)NCC(O)COc1cccc2ccccc12 (stereo not shown) [Propranolol, reference compound]
[4]
  Papp A→B: 62.6 ×10⁻⁶ cm/s

## CC(C)(Cc1ccc(F)cc1)NC(=O)[C@H](CCC(=O)O)NC(=O)c1ccc(-c2ccccc2)cc1 [Sample D, N^2-(1,1′-biphenyl-4-ylcarbonyl)-N^1-[2-(4-fluorophenyl)-1,1-dimethylethyl]-L-α-glutamine]
[5]; 2% Tween 80/water suspension, overnight
  Polymorphic conversion: not observed; also recorded: did not undergo polymorphic conversion
[5]; suspension 100 mg/mL in water, overnight (~18 hr), ambient conditions
  Polymorphic conversion / Polymorph Form after stirring: not observed; also recorded: did not undergo polymorphic conversion
[3]
  Solubility, 2% Tw80: 468 µg/mL (≈ 982 µM)
  pH of 2% Tw80 solubility sample: 5.4
[3]; water
  Solubility, Water: 37 µg/mL (≈ 77.6 µM)
  pH of water solubility sample: 5.5
[2]; aqueous buffer, thermodynamic from solid, Solubility at pH<4
  solubility at 24 h: ~4.5 µg/mL (≈ 9.44 µM)
Solid state stability
  Chemical stability, solid state: demonstrated chemical stability

## CC(C)(Cc1ccc(F)cc1)NC(=O)[C@H](CCC(=O)O)NC(=O)c1ccc(-c2ccccc2)cc1 [Sample 4, N^2-(1,1′-biphenyl-4-ylcarbonyl)-N^1-[2-(4-fluorophenyl)-1,1-dimethylethyl]-L-α-glutamine]
[1]; 2% Tween 80 in water (Tox formulation), aqueous with cosolvent or surfactant or cyclodextrin, thermodynamic from solid, read-out: Solubility
  solubility: 221 µg/mL (≈ 464 µM)

## COCCc1ccc(OCC(O)CNC(C)C)cc1 (stereo not shown) [Metoprolol, reference compound]
[6]; in situ rat perfusion model, read-out: permeability
  Papp: 1.45 ×10⁻⁶ cm/s
[6]; rat perfusion, 20 μg/mL
  Peff × 10^−1 (μm/sec): 1.45 × 10^−1 μm/sec
[7]; Caco-2, pH 7.4
  Papp A→B: 60.4 ×10⁻⁶ cm/s
[7]; A → B
  recovery: 109%
[7]; B → A
  recovery: 115%

## CC(C)(Cc1ccc(F)cc1)NC(=O)[C@H](CCC(=O)O)NC(=O)c1ccc(-c2ccccc2)cc1 [Sample 2, N^2-(1,1′-biphenyl-4-ylcarbonyl)-N^1-[2-(4-fluorophenyl)-1,1-dimethylethyl]-L-α-glutamine]
[1]
  solubility: 245.0 µg/mL (≈ 514 µM)

## CC(C)(Cc1ccc(F)cc1)NC(=O)[C@H](CCC(=O)O)NC(=O)c1ccc(-c2ccccc2)cc1 [Sample A, N^2-(1,1′-biphenyl-4-ylcarbonyl)-N^1-[2-(4-fluorophenyl)-1,1-dimethylethyl]-L-α-glutamine]
[5]; after conversion in 2% Tween 80 or water
  Degradation products of compound (I) by HPLC in converted materials: do not contain degradation products

## CC(C)(Cc1ccc(F)cc1)NC(=O)[C@H](CCC(=O)O)NC(=O)c1ccc(-c2ccccc2)cc1 [Sample 7, N^2-(1,1′-biphenyl-4-ylcarbonyl)-N^1-[2-(4-fluorophenyl)-1,1-dimethylethyl]-L-α-glutamine]
[1]
  solubility: 216.4 µg/mL (≈ 454 µM)
